Here are results for six compounds from PubChem BioAssay AID1919015 (Molecular Pharmacology Branch, DTP, NCI, 2023).

The subject of this test is OVCAR-5 complex spheroids with HUVEC/MSC, viability, % test/control. The test can be described thus: Anticancer human tumor OVCAR-5 cell line growth inhibition [AhR].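 On all read-outs here: spheroids exposed to compounds for 7 days.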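 On viability, T/C: 100% = DMSO vehicle control wells.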 The note with it: for viability, T/C: stronger effect = lower value. The procedure, abridged:
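Agents were dosed in half-log steps down from roughly clinical Cmax, or from 10 microM where Cmax was unknown, alone and with AhR antagonists. Read-out: percent test/control growth of tumor spheroids containing HUVEC and MSC stromal cells.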

Setting [1] is: curve of first compound, second compound 0.1 µM.
Where [2] appears, read: curve of first compound, second compound 0.316 µM.
Setting [3] is: curve of first compound, second compound 1 µM.
Where [4] appears, read: curve of first compound, second compound 3.16 µM.
Where [5] appears, read: curve of first compound, second compound 10 µM.
Where [6] appears, read: second compound 0.1 µM, first compound 0.0316 µM.
[7] abbreviates: second compound 0.1 µM, first compound 0.1 µM.
[8] abbreviates: second compound 0.1 µM, first compound 0.316 µM.
The mark [9] stands for this setting: second compound 0.1 µM, first compound 1 µM.
Setting [10] is: second compound 0.1 µM, first compound 3.16 µM.
Setting [11] is: second compound 0.1 µM, first compound 10 µM.
Where [12] appears, read: second compound 0.316 µM, first compound 0.0316 µM.
The mark [13] stands for this setting: second compound 0.316 µM, first compound 0.1 µM.
Where [14] appears, read: second compound 0.316 µM, first compound 0.316 µM.
The mark [15] stands for this setting: second compound 0.316 µM, first compound 1 µM.
Setting [16] is: second compound 0.316 µM, first compound 3.16 µM.
The mark [17] stands for this setting: second compound 0.316 µM, first compound 10 µM.
The mark [18] stands for this setting: second compound 1 µM, first compound 0.0316 µM.
Where [19] appears, read: second compound 1 µM, first compound 0.1 µM.
Where [20] appears, read: second compound 1 µM, first compound 0.316 µM.
[21] abbreviates: second compound 1 µM, first compound 1 µM.
Setting [22] is: second compound 1 µM, first compound 3.16 µM.
Setting [23] is: second compound 1 µM, first compound 10 µM.
Where [24] appears, read: second compound 3.16 µM, first compound 0.0316 µM.
Setting [25] is: second compound 3.16 µM, first compound 0.1 µM.
Setting [26] is: second compound 3.16 µM, first compound 0.316 µM.
The mark [27] stands for this setting: second compound 3.16 µM, first compound 1 µM.
Setting [28] is: second compound 3.16 µM, first compound 3.16 µM.
The mark [29] stands for this setting: second compound 3.16 µM, first compound 10 µM.
Setting [30] is: second compound 10 µM, first compound 0.0316 µM.
The mark [31] stands for this setting: second compound 10 µM, first compound 0.1 µM.
[32] abbreviates: second compound 10 µM, first compound 0.316 µM.
Setting [33] is: second compound 10 µM, first compound 1 µM.
Setting [34] is: second compound 10 µM, first compound 3.16 µM.
The mark [35] stands for this setting: second compound 10 µM, first compound 10 µM.

Structures are written as SMILES. pIC50: −log10 of the molar value. Where “and” joins values, the source holds several entries; their conditions need not be identical. Identical values can stand only once.

Consider `COc1ccc([C@@H](O)c2cc(-c3ncnc4cc(N5CCOCC5)ccc34)c(F)cc2Cl)nn1` + Cc1cncc(-c2nc(NCCc3c[nH]c4ccccc34)c3ncn(C(C)C)c3n2)c1, for which the pIC50 reads like this: under setting [1], 5.49; under setting [2], 5.45; under setting [3], 5.56; under setting [4], 5.78; under setting [5], over 7.50. For the same compound, the viability, T/C is, setting by setting: under setting [6], 104%; under setting [7], 104%; under setting [8], 100%; under setting [9], 80.9%; under setting [10], 50.9%; under setting [11], 28.8%. The viability, T/C is 104% under setting [12]; 103% under setting [13]; 94% under setting [14]; 80% under setting [15]; 52% under setting [16]; 29.1% under setting [17]. Besides, the viability, T/C runs as follows: under setting [18], 98.7%; under setting [19], 101%; under setting [20], 95%; under setting [21], 74.9%; under setting [22], 47.1%; under setting [23], 28.8%. Further, the viability, T/C runs as follows: under setting [24], 83.5%; under setting [25], 83.3%; under setting [26], 79.8%; under setting [27], 59.9%; under setting [28], 36.5%; under setting [29], 20%. For the same compound, the viability, T/C was 14.2% under setting [30]; 13.6% under setting [31]; 12.2% under setting [32]; 7.42% under setting [33]; 4.87% under setting [34]; 3.46% under setting [35].

`Nc1ncn(C2CC(O)C(CO)O2)c(=O)n1` (stereo not given) + CC(CO)NC(=O)c1cc(-c2ccc(Cl)cc2)nn(-c2cnn(C)c2)c1=O: the pIC50 runs as follows: under setting [1], under 6.00; under setting [2], under 6.00; under setting [3], under 6.00; under setting [4], under 6.00; under setting [5], under 6.00. The viability, T/C runs as follows: (second compound 0.1 µM, first compound 0.00316 µM) 107%; (second compound 0.1 µM, first compound 0.01 µM) 106%; under setting [6], 98%; under setting [7], 88.5%; under setting [8], 72.6%; under setting [9], 62.4%. The viability, T/C is, setting by setting: (second compound 0.316 µM, first compound 0.00316 µM) 107%; (second compound 0.316 µM, first compound 0.01 µM) 107%; under setting [12], 99%; under setting [13], 83.2%; under setting [14], 70.8%; under setting [15], 62%. The viability, T/C is 116% (second compound 1 µM, first compound 0.00316 µM); 114% (second compound 1 µM, first compound 0.01 µM); 109% under setting [18]; 91.6% under setting [19]; 71.3% under setting [20]; 66.4% under setting [21]. Moreover, the viability, T/C by setting is: (second compound 3.16 µM, first compound 0.00316 µM) 105%; (second compound 3.16 µM, first compound 0.01 µM) 99.4%; under setting [24], 97.9%; under setting [25], 83.7%; under setting [26], 70.6%; under setting [27], 59.2%. The viability, T/C runs as follows: (second compound 10 µM, first compound 0.00316 µM) 97.6%; (second compound 10 µM, first compound 0.01 µM) 99.9%; under setting [30], 97.4%; under setting [31], 88.4%; under setting [32], 72.9%; under setting [33], 64.2%.

Turning to `CCN(c1cc(-c2ccc(CN3CCOCC3)cc2)cc(C(=O)NCc2c(C)cc(C)[nH]c2=O)c1C)C1CCOCC1`, the viability, T/C reads like this: (compound 0.00949 µM) 104% (2×) and 101%; (compound 0.03 µM) 105% and 98.5% and 106%; (compound 0.0949 µM) 99.6% and 99.7% and 103%; (compound 0.3 µM) 101% and 100% and 105%; (compound 0.949 µM) 99.6% and 96.8% and 104%; (compound 3 µM) 101% and 96.4% and 104%. The pIC50 (curve of compound) is under 5.52.

As to `CC1(C)CCC(CN2CCN(c3ccc(C(=O)NS(=O)(=O)c4ccc(NCC5CCOCC5)c([N+](=O)[O-])c4)c(Oc4cnc5[nH]ccc5c4)c3)CC2)=C(c2ccc(Cl)cc2)C1` + Cc1cncc(-c2nc(NCCc3c[nH]c4ccccc34)c3ncn(C(C)C)c3n2)c1, the pIC50 by setting is: under setting [1], under 5.00; under setting [2], under 5.00; under setting [3], under 5.00; under setting [4], under 5.00; under setting [5], over 7.50. The viability, T/C under setting [6] is 105%; the viability, T/C under setting [7] is 103%; the viability, T/C under setting [8] is 106%; the viability, T/C under setting [9] was 106%; the viability, T/C under setting [10] was 109%; the viability, T/C under setting [11] was 90.1%. For the same compound, the viability, T/C under setting [12] was 101%; the viability, T/C under setting [13] was 103%; the viability, T/C under setting [14] was 102%; the viability, T/C under setting [15] was 105%; the viability, T/C under setting [16] was 109%; the viability, T/C under setting [17] was 89.5%. Moreover, the viability, T/C was 101% under setting [18]; 100% under setting [19]; 102% under setting [20]; 103% under setting [21]; 104% under setting [22]; 86.8% under setting [23]. The viability, T/C is, setting by setting: under setting [24], 81.5%; under setting [25], 85.6%; under setting [26], 86.3%; under setting [27], 83.4%; under setting [28], 88.5%; under setting [29], 75.3%. For the same compound, the viability, T/C was 4.28% under setting [30]; 4.26% under setting [31]; 5.72% under setting [32]; 3.52% under setting [33]; 4.43% under setting [34]; 9.47% under setting [35].

`Cc1ccccc1N=Nc1ccc(NC(=O)c2ccnn2C)c(C)c1`: the viability, T/C runs as follows: (compound 0.1 µM) 103% [middle of 20 runs]; (compound 0.316 µM) 108% [middle of 20 runs]; (compound 1 µM) 110% [middle of 20 runs]; (compound 3.16 µM) 113% [middle of 20 runs]; (compound 10 µM) 105% [middle of 20 runs]. Besides, the pIC50 (compound alone, run of 08/22/2022) was under 5.00.

As for `CC1(C)CCC(CN2CCN(c3ccc(C(=O)NS(=O)(=O)c4ccc(NCC5CCOCC5)c([N+](=O)[O-])c4)c(Oc4cnc5[nH]ccc5c4)c3)CC2)=C(c2ccc(Cl)cc2)C1`, the viability, T/C was 101% and 99.7% and 103% (compound 0.0316 µM); 99.9% and 101% and 107% (compound 0.1 µM); 102% and 97.2% and 103% (compound 0.316 µM); 103% (2×) and 98.7% (compound 1 µM); 108% and 98.8% and 114% (compound 3.16 µM); 92% and 56.4% and 56% (compound 10 µM). The pIC50 (curve of compound) is under 5.00.

The pIC50 is the negative decadic logarithm of the IC50, by convention in mol/L. As a reminder, the viability, T/C is the ratio of treated to control.
